Experimental data: article PMC12405493, “Selective ubiquitination of drug-like small molecules by the ubiquitin ligase HUWE1” (Nature Communications, 2025)

Assays:
[1] = system: HEK293T cells; experiment: LC/MS/MS detection of ubiquitinated compound from cell lysates (Ub pull-down); type: cell-based, human; conditions: 15 μM, 1 h
Description: Samples for LC/MS/MS analyses of the ubiquitinated inhibitors from reconstituted HUWE1^FL-driven reactions were prepared by in-solution trypsin (Mass Spec Grade, Promega) digestion, instead of the gel-based LysC digestion procedure described above. […] In both cases, the samples were reduced and alkylated with 10 mM TCEP and 20 mM iodoacetamide at 37 °C in the dark for 60 min. An equal mixture of Sera-Mag SpeedBeads with hydrophilic and hydrophobic surfaces (GE Healthcare; 1:1 mix (v/v)) was washed twice with water and added to the sample at 50:1(w/w) resin-to-protein ratio. […] The resulting peptides were then dried, dissolved in 5% ACN/0.1% FA (both v/v), and measured on a hybrid quadruple-Obitrap Exploris480 mass spectrometer (Thermo Fisher Scientific) coupled to an Ultimate 3000 UHPLC system (Thermo Fisher Scientific). […]
Sample preparation for LC/MS/MS detection of ubiquitinated compounds from cell lysates was performed according to the following workflow: HEK293T cells at 70% confluency were treated with 15 μM BI8626 or an equal volume of DMSO for 1 h. […] After 20 min incubation on a rotating wheel at 4 °C, the lysate was cleared by centrifugation, the total protein concentrations determined, and the sample (2.3 mg) diluted with 10 mM Tris (pH 7.5), 150 mM NaCl and 0.5 mM EDTA to a final volume of 1 mL. […]

[2] = target: T1, vinylthioether-linked HUWE1^HECT-Ub complex (Homo sapiens, UniProt Q7Z6Z7); experiment: Isothermal titration calorimetry (ITC) with HUWE1^HECT~Ub proxy; type: binding; conditions: 25 °C
T1 construct: The preparation of the vinylthioether-linked HUWE1^HECT-Ub complex was also previously described; made in house; host or cells: bacteria (components)
T1 sequence (Q7Z6Z7 4038-4374 limits assumed, other chains not shown): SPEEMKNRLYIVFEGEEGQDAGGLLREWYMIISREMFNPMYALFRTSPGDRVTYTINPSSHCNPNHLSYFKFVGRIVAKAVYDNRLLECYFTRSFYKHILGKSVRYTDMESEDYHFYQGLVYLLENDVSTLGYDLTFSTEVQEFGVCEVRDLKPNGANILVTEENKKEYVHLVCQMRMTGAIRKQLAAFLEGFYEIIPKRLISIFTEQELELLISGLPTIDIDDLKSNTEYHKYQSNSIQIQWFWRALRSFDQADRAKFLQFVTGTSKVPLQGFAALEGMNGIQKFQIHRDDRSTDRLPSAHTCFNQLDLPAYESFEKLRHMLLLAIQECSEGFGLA
Description: ITC was performed with an ITC200 calorimeter (MicroCal) at 25 °C. The proteins were dialyzed into 20 mM HEPES (pH 7.5), 150 mM NaCl, and 1 mM β-mercaptoethanol (β-ME) overnight. 600 μM HUWE1^HECT or HUWE1^HECT-Ub were applied to the cell and a 10-fold molar excess of BI8626 to the syringe (and vice versa). The reference cell was filled with buffer. Titration experiments included 1 injection of 1.5 μL, followed by 15 injections of 2.4 μL in 3-s intervals, with 150-s spacings between individual injections. The reference power was set to 12 μcal s^−1 and the stirring speed to 270 rpm. To control for instrument functionality, 5 mM CaCl2 were titrated into 0.4 mM EDTA in 10 mM MES (pH 5.6). Data were plotted with OriginPro v.2020b (OriginLab).

NCc1cccc(CNc2ncnc3c(N4CCN(Cc5ccccc5)CC4)ncnc23)c1 [BI8626]
Compound ubiquitination in cells (targeted MS/MS after Ub pull-down) [1]: indeed ubiquitinated in cells
Interaction with the HUWE1^HECT~Ub proxy by ITC [2]: No binding was detected
